Patent publication US9050346B2, “Bromodomain inhibitors” (AbbVie Inc., priority 2013, dated 2015)

Columns and labels:
BRD4 (BDI_K57-E168) = target: T1, BRD4 (BDI_K57-E168) (Homo sapiens, UniProt O60885); assay: TR-FRET bromodomain binding assay, BRD4 first bromodomain; conditions: His-tagged BD1, 100 nM Alexa647 probe; Ki calculated from IC50; dilution protocol A-G
T1 construct: BD1: amino acids K57-E168; made in house
Experimental: (§1) A time-resolved fluorescence resonance energy transfer (TR-FRET) assay was used to determine the affinities of compounds of the Examples listed in Table 1 for each bromodomain of BRD4. His-tagged first (BD1: amino acids K57-E168) and second (BD2: amino acids E352-E168) bromodomains of BRD4 were expressed and purified. An Alexa647-labeled BET-inhibitor was used as the fluorescent probe in the assay.
(§2) Compound dilution series were prepared in DMSO via an approximately 3-fold serial dilution from one of the following: • Assay method A: 2.5 mM-800 nM • Assay method B: 2.5 mM-797 nM • Assay method C: 1250 μM-21 nM • Assay method D: 500 μM-8.5 nM • Assay method E: 0.47 mM to 7.8 nM • Assay method F: 250 μM-4.2 nM • Assay method G: 0.047 mM to 0.78 nM or 5-fold serial dilution from Assay Method A or Assay Method B.
(§3) For Assay methods A, C, D, and F: Compounds were then diluted 6:100 in assay buffer (20 mM Sodium Phosphate, pH 6.0, 50 mM NaCl, 1 mM Ethylenediaminetetraacetic acid, 0.01% Triton X-100, 1 mM DL-Dithiothreitol) to yield 3× working solutions. Six microliters (μL) of the working solution was then transferred to white, low-volume assay plates (Costar #3673). A 1.5× assay mixture containing His-tagged bromodomain, Europium-conjugated anti-His antibody (Invitrogen PV5596) and the Alexa-647-conjugated probe molecule was also prepared. Twelve μL of this solution were added to the assay plate to reach a final volume of 18 μL.
(§4) For Assay methods B, E, and G: Compound dilutions were added directly into white, low-volume assay plates (Perkin Elmer Proxiplate 384 Plus#6008280) using a Labcyte Echo in conjunction with Labcyte Access and Thermo Multidrop CombinL robotics. Compounds were then suspended in eight microliters (μL) of assay buffer (20 mM Sodium Phosphate, pH 6.0, 50 mM NaCl, 1 mM Ethylenediaminetetraacetic acid disodium salt dihydrate, 0.01% Triton X-100, 1 mM DL-Dithiothreitol) containing His-tagged bromodomain, Europium-conjugated anti-His antibody (Invitrogen PV5596) and Alexa-647-conjugated probe.
(§5) The final concentration of 1× assay mixture for assay methods A, B, C, D, E, F, and G contains 2% DMSO, 8 nM His-tagged bromodomain, 1 nM Europium-conjugated anti-His-tag antibody and 100 nM or 30 nM probe (for BDI or BDII, respectively) and compound concentration in the range of: 50 μM-16 nM for method A, 49.02 μM-15.63 nM for method B, 25 μM-423 pM for method C, 10 μM-169 pM for method D, 9.19 μM-150 pM for method E, 5 μM-85 pM for method F, and 0.92 μM-15 pM for method G.
(§6) After a one-hour equilibration at room temperature, TR-FRET ratios were determined using an Envision multilabel plate reader (Ex 340, Em 495/520).
(§7) TR-FRET data were normalized to the means of 24 no-compound controls (“high”) and 8 controls containing 1 μM un-labeled probe (“low”). Percent inhibition was plotted as a function of compound concentration and the data were fit with the 4 parameter logistic equation to obtain IC50s Inhibition constants (Ki) were calculated from the IC50s, probe Kd and probe concentration. Typical Z′ values were between 0.65 and 0.75. The minimum significant ratio was determined to evaluate assay reproducibility (Eastwood et al., (2006) J Biomol Screen, 11: 253-261). The MSR was determined to be 2.03 for BDI and 1.93 for BDII, and a moving MSR (last six run MSR overtime) for both BDI and BDII was typically <3.

BRD4 (BDII_E352-M457) = target: T2, BRD4 (BDII_E352-M457) (Homo sapiens, UniProt O60885); assay: TR-FRET bromodomain binding assay, BRD4 second bromodomain
T2 construct: made in house
Experimental: as §1, §2, §3, §4, §5, §6, §7

| Ki (BRD4 (BDI_K57-E168)) [nM] | Ki (BRD4 (BDII_E352-M457)) [nM] | SMILES |
| --- | --- | --- |
| 225 | 2790 | Cc1[nH]c(-c2ccccc2Oc2ccc(F)cc2F)c2cc(C(=O)O)[nH]c(=O)c12 [Example 22, 1-[2-(2,4-difluorophenoxy)phenyl]-3-methyl-4-oxo-4,5-dihydro-2H-pyrrolo[3,4-c]pyridine-6-carboxylic acid] |
| 92.2 | 2750 | CCOC(=O)c1cc2c(-c3cc(Cl)ccc3Oc3ccc(F)cc3F)[nH]c(C)c2c(=O)[nH]1 [Example 24, ethyl 1-[5-chloro-2-(2,4-difluorophenoxy)phenyl]-3-methyl-4-oxo-4,5-dihydro-2H-pyrrolo[3,4-c]pyridine-6-carboxylate] |
| 499 | 759 | CCOC(=O)c1cc2c(-c3cc([N+](=O)[O-])ccc3Oc3ccc(F)cc3F)[nH]c(C)c2c(=O)[nH]1 [Example 33, ethyl 1-[2-(2,4-difluorophenoxy)-5-nitrophenyl]-3-methyl-4-oxo-4,5-dihydro-2H-pyrrolo[3,4-c]pyridine-6-carboxylate] |
| 14 | 138 | Cc1[nH]c(-c2cc(NS(C)(=O)=O)ccc2Oc2ccc(F)cc2F)c2c1C(=O)NCC2 [Example 93, N-[4-(2,4-difluorophenoxy)-3-(3-methyl-4-oxo-4,5,6,7-tetrahydro-2H-pyrrolo[3,4-c]pyridin-1-yl)phenyl]methanesulfonamide] |
| 519 | 2520 | CCCc1noc(-c2cc3c(-c4ccccc4Oc4ccccc4)[nH]c(C)c3c(=O)[nH]2)n1 [Example 47, 3-methyl-1-(2-phenoxyphenyl)-6-(3-propyl-1,2,4-oxadiazol-5-yl)-2H-pyrrolo[3,4-c]pyridin-4(5H)-one] |
| 1620 | > 4440 | Cc1[nH]c(-c2cc(S(C)(=O)=O)ccc2F)c2c1C(=O)NCC2 [Example 99, 1-[2-fluoro-5-(methylsulfonyl)phenyl]-3-methyl-2,5,6,7-tetrahydro-4H-pyrrolo[3,4-c]pyridin-4-one] |
| 3.67 | 20.4 | Cc1[nH]c(-c2cc(NS(C)(=O)=O)ccc2Oc2ccccc2)c2c1C(=O)NCC2 [Example 95, N-[3-(3-methyl-4-oxo-4,5,6,7-tetrahydro-2H-pyrrolo[3,4-c]pyridin-1-yl)-4-phenoxyphenyl]methanesulfonamide] |
| 14.1 | 47 | Cc1[nH]c(-c2ccccc2Oc2ccccc2)c2c1C(=O)NCC2 [Example 92, 3-methyl-1-(2-phenoxyphenyl)-2,5,6,7-tetrahydro-4H-pyrrolo[3,4-c]pyridin-4-one] |
| 141 | 944 | Cc1[nH]c(-c2ccccc2Oc2ccccc2)c2cc(C(=O)N(C)C)[nH]c(=O)c12 [Example 41, N,N,3-trimethyl-4-oxo-1-(2-phenoxyphenyl)-4,5-dihydro-2H-pyrrolo[3,4-c]pyridine-6-carboxamide] |
| 1.49 | 8.5 | Cc1[nH]c(-c2cc(NS(C)(=O)=O)ccc2Oc2ccccc2)c2cn[nH]c(=O)c12 [Example 73, N-[3-(7-methyl-1-oxo-2,6-dihydro-1H-pyrrolo[3,4-d]pyridazin-5-yl)-4-phenoxyphenyl]methanesulfonamide] |
| 22.6 | 117 | Cc1[nH]c(-c2cc(NS(C)(=O)=O)ccc2Oc2ccccc2)c2nc[nH]c(=O)c12 [Example 91, N-[3-(5-methyl-4-oxo-4,6-dihydro-3H-pyrrolo[3,4-d]pyrimidin-7-yl)-4-phenoxyphenyl]methanesulfonamide] |
| 82.6 | 546 | Cc1[nH]c(-c2ccccc2Oc2ccccc2)c2cc(C(=O)O)[nH]c(=O)c12 [Example 12, 3-methyl-4-oxo-1-(2-phenoxyphenyl)-4,5-dihydro-2H-pyrrolo[3,4-c]pyridine-6-carboxylic acid] |
| 108 | 791 | Cc1[nH]c(-c2cc(N)ccc2Oc2ccccc2)c2nc[nH]c(=O)c12 [Example 90, 7-(5-amino-2-phenoxyphenyl)-5-methyl-3,6-dihydro-4H-pyrrolo[3,4-d]pyrimidin-4-one] |
| 1560 | 3120 | Cc1[nH]c(-c2cc(CN3CCN(C)CC3)ccc2Oc2ccc(F)cc2F)c2c1C(=O)NCC2 [Example 102, 1-{2-(2,4-difluorophenoxy)-5-[(4-methylpiperazin-1-yl)methyl]phenyl}-3-methyl-2,5,6,7-tetrahydro-4H-pyrrolo[3,4-c]pyridin-4-one] |
| 7.63 | 25.8 | Cc1[nH]c(-c2ccccc2Oc2ccccc2)c2cn[nH]c(=O)c12 [Example 72, 7-methyl-5-(2-phenoxyphenyl)-2,6-dihydro-1H-pyrrolo[3,4-d]pyridazin-1-one] |
| 1250 | 1220 | Cc1[nH]c(-c2ccccc2Oc2ccccc2)c2cc(-c3nc(-c4ccccc4)no3)[nH]c(=O)c12 [Example 46, 3-methyl-1-(2-phenoxyphenyl)-6-(3-phenyl-1,2,4-oxadiazol-5-yl)-2H-pyrrolo[3,4-c]pyridin-4(5H)-one] |
| 2250 | 2920 | Cc1[nH]c(-c2ccccc2)c2c1C(=O)NCC2 [Example 100, 3-methyl-1-phenyl-2,5,6,7-tetrahydro-4H-pyrrolo[3,4-c]pyridin-4-one] |
| 31.4 | 67.6 | Cc1[nH]c(-c2ccccc2Oc2ccccc2)c2cc[nH]c(=O)c12 [Example 14, 3-methyl-1-(2-phenoxyphenyl)-2H-pyrrolo[3,4-c]pyridin-4(5H)-one] |
| > 13000 | > 22200 | Cc1ccc(S(=O)(=O)Nc2ccccc2-c2[nH]c(C)c3c(=O)[nH]ncc23)cc1 [Example 77, 4-methyl-N-[2-(7-methyl-1-oxo-2,6-dihydro-1H-pyrrolo[3,4-d]pyridazin-5-yl)phenyl]benzenesulfonamide] |
| 1370 | 12300 | Cc1[nH]c(-c2ccccc2Oc2ccccc2)c2nc(C(=O)O)[nH]c(=O)c12 [Example 86, 5-methyl-4-oxo-7-(2-phenoxyphenyl)-4,6-dihydro-3H-pyrrolo[3,4-d]pyrimidine-2-carboxylic acid] |
| > 2380 | > 4080 | Cc1[nH]c(-c2ccccc2Oc2ccccc2)c2cc(-c3nc(-c4ccc(N(C)C)cc4)no3)[nH]c(=O)c12 [Example 62, 6-(3-(4-(dimethylamino)phenyl)-1,2,4-oxadiazol-5-yl)-3-methyl-1-(2-phenoxyphenyl)-2H-pyrrolo[3,4-c]pyridin-4(5H)-one] |
| 358 | 1720 | Cc1[nH]c(-c2cc(S(C)(=O)=O)ccc2Oc2ccc(F)cc2F)c2cc(C(=O)O)[nH]c(=O)c12 [Example 40, 1-[2-(2,4-difluorophenoxy)-5-(methylsulfonyl)phenyl]-3-methyl-4-oxo-4,5-dihydro-2H-pyrrolo[3,4-c]pyridine-6-carboxylic acid] |
